From US20190195880A1, “METHODS AND KITS FOR PREDICTING THE SENSITIVITY OF A SUBJECT SUFFERING OF RENAL CANCER TO CANCER TREATMENT” (CENTRE NATIONAL DE LA RECHERCHE SCIENTIFIQUE (CNRS), priority 2016, published 2019)
Where two headings read alike, the source gives them in different places.

Legend:
metastatic ccRCC [1] = tested on: metastatic ccRCC
Procedure: Eligible patients were at least 18 years of age and had metastatic ccRCC histologically confirmed, with the presence of measurable disease according to Response Evaluation Criteria in Solid Tumors (RECIST) v1.1.
The primary end point of the study was to evaluate the correlation between plasmatic levels of CXCL5 and CXCL7 and the overall response rate (ORR). The response was evaluated by investigators' assessment.
The secondary end points were to evaluate the correlation between plasmatic levels of CXCL5 and/or CXCL7 and overall survival (OS) and progression-free survival (PFS), censored at last follow-up for those still alive or who have not progressed.
Blood samples were centrifuged and the plasmas were collected and conserved at −80° C. Plasmatic levels of CXCL5 and CXCL7 were determined by ELISA using R&D (reference DY254) and Peprotech kits (reference 900-K40) respectively. Pure plasma or a 1/5 dilution was used for CXCL5 detection and a 1/100 dilution was used to detect CXCL7.
Spearman's correlation was performed between best response rate and quantitative level of chemokine. The CXCL5 and CXCL7 cut-off points (respectively 0.1 and 250 ng/ml) for PFS and OS were determined using smoothing spline curves analysis (R software, version 3.2.2). Kaplan Meier method was used to produce survival curves and analyses of censored data were performed using Cox models. The predictive cut-off points determined in the SUVEGIL cohort were used for the TORAVA cohort.

metastatic ccRCC [2] = experiment: Combination of SUVEGIL and TORAVA trials (sunitinib): survival versus plasmatic CXCL7; assay type: in vivo, human; details: both cohorts combined
Procedure: (§1) All patients gave written informed consent. The SUVEGIL trial (NCT00943839) was a multicenter prospective single-arm study. […] Patient characteristics and results have been previously described (Negrier et al., 2011).
(§2) The CXCL5 and CXCL7 cut-off points (respectively 0.1 and 250 ng/ml) for PFS and OS were determined using smoothing spline curves analysis (R software, version 3.2.2). […] The predictive cut-off points determined in the SUVEGIL cohort were used for the TORAVA cohort.

metastatic ccRCC [3] = experiment: TORAVA trial (retrospective validation cohort): survival versus plasmatic CXCL5/CXCL7; assay type: in vivo, human; details: patients with CXCL7 plasma levels below 250 ng/ml
Procedure: as §1, §2

[4] = CXCL7 plasma levels below 250 ng/ml

With `CCN(CC)CCNC(=O)c1c(C)[nH]c(/C=C2\C(=O)Nc3ccc(F)cc32)c1C` [sunitinib] the “median PFS” value (metastatic ccRCC [1]; SUVEGIL prospective cohort, all patients) was 20.1 months, the “median PFS” value (metastatic ccRCC [1]; patients with CXCL5 plasma levels below 0.1 ng/ml) was 14.9 months and the “median OS” value (metastatic ccRCC [1]; patients with CXCL7 plasma levels below 250 ng/ml) was 20.5 months. For the same compound, the PFS (metastatic ccRCC [1]; patients with CXCL7 plasma levels below 250 ng/ml at diagnosis) was 15.1 months, the “median OS” value (metastatic ccRCC [1]; patients with CXCL7 plasmatic levels above 250 ng/ml, p=0.001) was 34.4 months and the OS (metastatic ccRCC [2]; CXCL7 plasma levels above 250 ng/ml, p=0.00025) was 34.4 months. For the same compound, the OS (metastatic ccRCC [2]; [4]) was 20.7 months, the “median PFS” value (metastatic ccRCC [2]; [4]) was 8.3 months and the PFS (metastatic ccRCC [3]) was 8.6 months.
